Source: article PMC4858680, “A platinum-based hybrid drug design approach to circumvent acquired resistance to molecular targeted tyrosine kinase inhibitors” (Scientific Reports, 2016)

What was measured:
MET = MET (Homo sapiens, UniProt P08581); details: 10 μM
[1] = Chemical stability of the hybrid compounds; details: saline, phosphate buffered solution (pH 4 and 7.4), culture medium with 5 mM glutathione
ABL2 = ABL2 (Homo sapiens, UniProt P42684); details: 10 μM
LTK = LTK (Homo sapiens, UniProt P29376); test: biochemical; details: read-out: Percent control
SYK = SYK (Homo sapiens, UniProt P43405); test: biochemical; details: read-out: Percent control
EPHB1 = biological target: T1, EPHB1 (Homo sapiens, UniProt P54762); test: biochemical; details: read-out: Percent control
T1 sequence (P54762 18-984): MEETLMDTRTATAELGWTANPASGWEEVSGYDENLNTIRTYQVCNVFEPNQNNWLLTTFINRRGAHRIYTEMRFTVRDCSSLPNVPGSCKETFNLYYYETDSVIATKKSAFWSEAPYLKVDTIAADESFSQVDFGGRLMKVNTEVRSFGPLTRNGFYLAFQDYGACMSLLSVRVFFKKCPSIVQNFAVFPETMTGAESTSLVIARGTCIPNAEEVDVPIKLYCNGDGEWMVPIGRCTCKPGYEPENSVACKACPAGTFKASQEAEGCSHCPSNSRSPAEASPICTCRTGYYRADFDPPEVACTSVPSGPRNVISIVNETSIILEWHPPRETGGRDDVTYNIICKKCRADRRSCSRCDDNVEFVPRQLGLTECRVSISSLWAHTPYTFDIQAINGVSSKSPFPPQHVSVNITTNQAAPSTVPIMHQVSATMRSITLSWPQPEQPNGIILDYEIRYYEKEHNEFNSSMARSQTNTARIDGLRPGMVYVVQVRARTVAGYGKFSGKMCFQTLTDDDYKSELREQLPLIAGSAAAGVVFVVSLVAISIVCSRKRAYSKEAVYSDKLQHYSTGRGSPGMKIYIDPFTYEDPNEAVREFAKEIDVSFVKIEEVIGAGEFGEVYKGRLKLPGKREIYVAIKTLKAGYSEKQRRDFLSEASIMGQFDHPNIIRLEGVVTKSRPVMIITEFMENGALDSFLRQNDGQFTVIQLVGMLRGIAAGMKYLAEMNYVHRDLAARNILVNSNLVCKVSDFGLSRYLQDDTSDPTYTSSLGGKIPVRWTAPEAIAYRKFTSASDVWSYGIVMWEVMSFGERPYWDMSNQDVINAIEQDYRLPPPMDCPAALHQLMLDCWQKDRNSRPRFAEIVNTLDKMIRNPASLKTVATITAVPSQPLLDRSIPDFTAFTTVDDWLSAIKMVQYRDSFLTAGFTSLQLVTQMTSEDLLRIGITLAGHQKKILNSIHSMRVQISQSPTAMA

EPHB4 = biological target: T2, EPHB4 (Homo sapiens, UniProt P54760); test: biochemical; details: read-out: Percent control
T2 sequence (P54760 16-987): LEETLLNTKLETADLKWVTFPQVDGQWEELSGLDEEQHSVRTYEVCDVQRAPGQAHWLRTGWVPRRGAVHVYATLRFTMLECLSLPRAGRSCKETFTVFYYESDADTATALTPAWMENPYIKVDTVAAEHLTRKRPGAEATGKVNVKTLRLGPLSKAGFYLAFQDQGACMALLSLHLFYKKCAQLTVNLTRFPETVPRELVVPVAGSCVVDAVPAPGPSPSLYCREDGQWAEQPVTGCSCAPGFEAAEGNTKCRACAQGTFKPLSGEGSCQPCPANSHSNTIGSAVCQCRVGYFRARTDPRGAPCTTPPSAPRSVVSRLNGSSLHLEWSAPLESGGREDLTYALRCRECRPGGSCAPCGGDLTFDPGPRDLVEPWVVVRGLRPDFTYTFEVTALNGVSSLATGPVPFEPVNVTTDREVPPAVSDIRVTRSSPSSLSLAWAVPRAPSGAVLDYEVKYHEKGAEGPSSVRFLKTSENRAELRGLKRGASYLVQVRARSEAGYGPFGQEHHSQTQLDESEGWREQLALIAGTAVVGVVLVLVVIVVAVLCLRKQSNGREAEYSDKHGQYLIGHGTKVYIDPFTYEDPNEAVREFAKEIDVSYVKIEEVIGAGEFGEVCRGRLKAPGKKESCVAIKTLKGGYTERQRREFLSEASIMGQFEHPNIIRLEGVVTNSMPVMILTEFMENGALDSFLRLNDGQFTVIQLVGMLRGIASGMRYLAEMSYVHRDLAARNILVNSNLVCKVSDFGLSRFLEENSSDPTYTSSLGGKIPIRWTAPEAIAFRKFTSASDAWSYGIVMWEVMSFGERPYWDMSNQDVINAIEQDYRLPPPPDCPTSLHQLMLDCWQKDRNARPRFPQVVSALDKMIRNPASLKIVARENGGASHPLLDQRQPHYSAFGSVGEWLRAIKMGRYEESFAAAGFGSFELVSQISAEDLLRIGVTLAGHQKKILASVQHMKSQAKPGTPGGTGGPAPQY

FGFR2 = FGFR2 (Homo sapiens, UniProt P21802); test: biochemical; details: read-out: Percent control
FYN = FYN (Homo sapiens, UniProt P06241); test: biochemical; details: read-out: Percent control
Sequence of FYN (P06241 whole entry): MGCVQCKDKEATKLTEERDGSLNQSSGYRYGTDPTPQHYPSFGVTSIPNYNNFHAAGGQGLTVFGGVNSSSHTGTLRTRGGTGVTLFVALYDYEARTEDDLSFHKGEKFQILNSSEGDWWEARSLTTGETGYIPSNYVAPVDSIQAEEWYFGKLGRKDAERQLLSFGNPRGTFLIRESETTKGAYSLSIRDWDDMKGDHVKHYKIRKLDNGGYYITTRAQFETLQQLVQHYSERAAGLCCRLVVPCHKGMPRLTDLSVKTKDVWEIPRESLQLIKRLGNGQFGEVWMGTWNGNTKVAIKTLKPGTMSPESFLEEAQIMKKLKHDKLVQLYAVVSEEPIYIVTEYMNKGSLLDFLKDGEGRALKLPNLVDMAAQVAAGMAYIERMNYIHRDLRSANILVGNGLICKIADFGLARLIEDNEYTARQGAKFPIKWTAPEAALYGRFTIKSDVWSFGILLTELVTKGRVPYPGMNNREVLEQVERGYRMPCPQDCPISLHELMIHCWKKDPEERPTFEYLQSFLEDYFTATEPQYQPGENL

Sequence of LTK (P29376 17-864): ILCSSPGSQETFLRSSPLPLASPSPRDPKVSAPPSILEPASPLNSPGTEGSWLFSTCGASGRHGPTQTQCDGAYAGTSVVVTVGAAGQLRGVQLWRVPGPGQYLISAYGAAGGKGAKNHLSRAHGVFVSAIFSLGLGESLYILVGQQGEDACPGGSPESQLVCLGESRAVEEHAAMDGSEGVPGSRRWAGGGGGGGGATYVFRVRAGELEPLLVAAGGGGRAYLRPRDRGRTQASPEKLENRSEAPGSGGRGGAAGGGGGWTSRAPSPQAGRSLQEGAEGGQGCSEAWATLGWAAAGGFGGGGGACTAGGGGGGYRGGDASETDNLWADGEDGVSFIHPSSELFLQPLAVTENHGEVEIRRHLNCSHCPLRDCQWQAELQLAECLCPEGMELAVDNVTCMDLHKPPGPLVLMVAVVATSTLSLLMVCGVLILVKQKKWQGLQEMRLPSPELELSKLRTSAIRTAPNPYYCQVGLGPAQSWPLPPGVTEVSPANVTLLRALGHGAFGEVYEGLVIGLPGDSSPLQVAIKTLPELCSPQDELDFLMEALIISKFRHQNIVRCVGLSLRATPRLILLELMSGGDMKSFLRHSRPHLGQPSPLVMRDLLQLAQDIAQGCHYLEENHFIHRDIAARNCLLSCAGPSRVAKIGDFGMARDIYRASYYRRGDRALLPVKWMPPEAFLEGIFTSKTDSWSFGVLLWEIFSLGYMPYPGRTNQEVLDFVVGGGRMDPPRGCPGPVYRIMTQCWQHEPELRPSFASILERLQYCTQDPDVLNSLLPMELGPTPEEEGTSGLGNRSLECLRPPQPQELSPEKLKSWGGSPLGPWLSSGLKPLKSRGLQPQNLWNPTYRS
Sequence of FGFR2 (P21802 22-821): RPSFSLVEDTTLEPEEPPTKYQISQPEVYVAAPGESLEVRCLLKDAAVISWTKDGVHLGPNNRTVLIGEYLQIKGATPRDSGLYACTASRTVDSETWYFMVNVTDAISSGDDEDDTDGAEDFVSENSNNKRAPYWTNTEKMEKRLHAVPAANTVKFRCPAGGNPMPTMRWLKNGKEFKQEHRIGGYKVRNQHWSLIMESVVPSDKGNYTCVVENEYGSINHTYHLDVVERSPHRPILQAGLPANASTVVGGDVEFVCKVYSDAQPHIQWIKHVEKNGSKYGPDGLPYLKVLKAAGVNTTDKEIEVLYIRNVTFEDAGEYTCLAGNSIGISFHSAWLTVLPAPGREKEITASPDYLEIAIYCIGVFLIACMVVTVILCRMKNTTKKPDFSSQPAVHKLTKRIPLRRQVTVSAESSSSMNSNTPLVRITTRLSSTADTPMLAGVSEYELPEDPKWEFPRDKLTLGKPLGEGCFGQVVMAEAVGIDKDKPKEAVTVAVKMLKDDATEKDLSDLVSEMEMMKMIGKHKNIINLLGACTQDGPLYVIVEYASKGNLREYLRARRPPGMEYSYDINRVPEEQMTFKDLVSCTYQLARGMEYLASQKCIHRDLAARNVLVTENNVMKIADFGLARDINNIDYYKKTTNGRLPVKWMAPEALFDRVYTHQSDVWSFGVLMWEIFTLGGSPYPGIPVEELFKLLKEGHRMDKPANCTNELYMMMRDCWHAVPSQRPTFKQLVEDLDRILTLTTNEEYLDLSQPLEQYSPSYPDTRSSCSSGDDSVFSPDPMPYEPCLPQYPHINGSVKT
Sequence of ABL2 (P42684 whole entry): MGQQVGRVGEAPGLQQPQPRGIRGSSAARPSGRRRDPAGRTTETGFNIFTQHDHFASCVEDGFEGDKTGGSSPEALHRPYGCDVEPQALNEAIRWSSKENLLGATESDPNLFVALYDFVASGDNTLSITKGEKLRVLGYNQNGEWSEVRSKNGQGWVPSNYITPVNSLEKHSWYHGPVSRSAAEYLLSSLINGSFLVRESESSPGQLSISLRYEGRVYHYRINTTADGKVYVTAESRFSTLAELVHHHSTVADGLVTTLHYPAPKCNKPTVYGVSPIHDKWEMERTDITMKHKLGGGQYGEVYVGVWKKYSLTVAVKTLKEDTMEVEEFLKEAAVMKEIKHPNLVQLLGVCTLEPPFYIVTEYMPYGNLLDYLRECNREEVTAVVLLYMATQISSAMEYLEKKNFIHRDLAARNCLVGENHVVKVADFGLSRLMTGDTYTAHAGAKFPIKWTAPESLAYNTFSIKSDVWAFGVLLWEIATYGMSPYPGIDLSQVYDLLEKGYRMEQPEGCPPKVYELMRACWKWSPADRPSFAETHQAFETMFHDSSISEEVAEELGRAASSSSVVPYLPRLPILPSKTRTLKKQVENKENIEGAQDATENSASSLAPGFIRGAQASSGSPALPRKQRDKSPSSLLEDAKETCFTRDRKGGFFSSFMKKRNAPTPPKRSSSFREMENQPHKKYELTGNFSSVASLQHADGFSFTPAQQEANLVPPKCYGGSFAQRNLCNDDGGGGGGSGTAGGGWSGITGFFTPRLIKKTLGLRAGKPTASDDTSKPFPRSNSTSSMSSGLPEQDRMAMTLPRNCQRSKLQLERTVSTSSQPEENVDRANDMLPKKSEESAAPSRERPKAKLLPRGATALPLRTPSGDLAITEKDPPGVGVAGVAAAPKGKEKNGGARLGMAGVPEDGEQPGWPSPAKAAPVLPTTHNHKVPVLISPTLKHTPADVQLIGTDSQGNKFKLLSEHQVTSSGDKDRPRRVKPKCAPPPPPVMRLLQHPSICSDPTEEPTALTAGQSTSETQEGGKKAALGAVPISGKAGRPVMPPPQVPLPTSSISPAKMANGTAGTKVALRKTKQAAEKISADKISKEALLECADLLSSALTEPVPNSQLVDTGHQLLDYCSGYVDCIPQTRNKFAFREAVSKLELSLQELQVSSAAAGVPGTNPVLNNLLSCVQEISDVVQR
Sequence of MET (P08581 25-1390): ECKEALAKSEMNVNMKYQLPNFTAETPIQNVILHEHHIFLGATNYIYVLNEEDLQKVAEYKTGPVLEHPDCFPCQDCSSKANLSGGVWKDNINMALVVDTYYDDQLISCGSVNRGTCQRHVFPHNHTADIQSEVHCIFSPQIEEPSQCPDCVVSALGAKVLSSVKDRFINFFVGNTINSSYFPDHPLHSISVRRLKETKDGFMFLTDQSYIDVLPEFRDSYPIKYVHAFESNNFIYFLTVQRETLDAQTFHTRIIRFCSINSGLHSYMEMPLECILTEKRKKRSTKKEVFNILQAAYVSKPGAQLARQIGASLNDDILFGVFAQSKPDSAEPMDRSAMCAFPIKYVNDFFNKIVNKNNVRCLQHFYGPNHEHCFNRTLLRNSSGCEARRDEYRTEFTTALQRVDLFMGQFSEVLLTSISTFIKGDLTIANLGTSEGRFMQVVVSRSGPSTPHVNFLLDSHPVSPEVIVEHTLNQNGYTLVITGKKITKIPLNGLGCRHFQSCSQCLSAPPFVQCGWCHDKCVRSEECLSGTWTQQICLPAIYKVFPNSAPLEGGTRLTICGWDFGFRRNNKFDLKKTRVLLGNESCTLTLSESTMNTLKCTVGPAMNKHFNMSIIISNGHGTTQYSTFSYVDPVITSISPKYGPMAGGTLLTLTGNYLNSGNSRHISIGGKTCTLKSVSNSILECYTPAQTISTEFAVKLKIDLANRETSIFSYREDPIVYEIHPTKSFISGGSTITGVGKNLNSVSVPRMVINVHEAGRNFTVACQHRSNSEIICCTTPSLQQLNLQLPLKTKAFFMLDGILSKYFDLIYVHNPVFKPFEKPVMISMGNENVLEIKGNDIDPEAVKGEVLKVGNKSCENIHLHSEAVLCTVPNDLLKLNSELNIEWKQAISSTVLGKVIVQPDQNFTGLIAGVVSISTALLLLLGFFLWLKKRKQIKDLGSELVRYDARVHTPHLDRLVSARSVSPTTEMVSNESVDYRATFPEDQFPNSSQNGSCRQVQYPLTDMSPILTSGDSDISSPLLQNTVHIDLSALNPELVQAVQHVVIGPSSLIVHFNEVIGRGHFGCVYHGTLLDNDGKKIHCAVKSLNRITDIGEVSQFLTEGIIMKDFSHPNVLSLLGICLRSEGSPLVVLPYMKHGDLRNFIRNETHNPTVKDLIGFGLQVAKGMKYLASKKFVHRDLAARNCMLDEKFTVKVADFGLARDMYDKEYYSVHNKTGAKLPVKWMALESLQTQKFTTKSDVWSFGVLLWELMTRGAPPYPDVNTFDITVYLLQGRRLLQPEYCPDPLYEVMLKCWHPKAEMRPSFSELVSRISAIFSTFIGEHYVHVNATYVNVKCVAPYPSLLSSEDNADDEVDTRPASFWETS

SMILES	Percent control (MET)	chemical stability in all conditions tested [1]	Percent control (ABL2)	remaining activity at 10 µM (LTK)	remaining activity at 10 µM (SYK)	remaining activity at 10 µM (EPHB1)	remaining activity at 10 µM (EPHB4)	remaining activity at 10 µM (FGFR2)	remaining activity at 10 µM (FYN)
Cc1ccc(NC(=O)c2ccc(CN3CCN(C)CC3)cc2)cc1Nc1nccc(-c2cccnc2)[n+]1[Pt-2]1([Cl])[NH2+]C2CCCCC2[NH2+]1 (stereo not drawn) [1b, oxaliplatin-imatinib]	88%	stable	–	–	–	–	–	–	–
C#Cc1cccc(Nc2c3cc(OCCOC)c(OCCOC)cc3nc[n+]2[Pt@SP2-2]([NH3+])([NH3+])[Cl])c1 [2a, cisplatin-erlotinib]	63%	stable	46%	–	–	–	–	–	–
COc1cc2c(Nc3ccc(Br)cc3F)[n+]([Pt-2]3([Cl])[NH2+]C4CCCCC4[NH2+]3)cnc2cc1OCC1CCN(C)CC1 (stereo not drawn) [3b, oxaliplatin-vandetanib]	–	–	20%	–	–	–	–	–	–
C#Cc1cccc(Nc2ncnc3cc(OCCOC)c(OCCOC)cc23)c1 [Erlotinib]	–	–	–	8.2%	100%	9.9%	18%	100%	100%
COc1cc2c(Nc3ccc(Br)cc3F)ncnc2cc1OCC1CCN(C)CC1 [Vandetanib, reference compound]	–	–	–	5.2%	100%	2.8%	4.9%	9.9%	3.5%
